Measurements taken from the supplement of paper PMC8671470.

test system: myeloid leukemia patient primary cells Pat.1; assay: cell viability (% survival relative to DMSO control); higher = less cytotoxic; conditions: 1 nM; 72 h
Outline: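 Where an area under the curve appears, it was computed with the drc and PharmacoGx R packages from log-logistic fits. Those fits used four parameters. The underlying viability data came from CellTiter-Glo after 72 h, normalised to DMSO and 10 μM proteasome-inhibitor wells, with thawed, Ficoll-purified AML or CML patient mononuclear cells at 10,000 cells/well in RPMI 1640 with 10% FBS on 384-well plates pre-printed with 70 compounds at five tenfold concentrations (1–10,000 nM) in duplicate.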

Going from `O=C(C1CC1)N1CC[C@@H](C=C2NNC(=O)N2c2ccc(-c3ccc4occc4c3)cc2)C1` to `Cc1c(-c2ccc(-c3ccccc3F)cc2)nc2ccc(F)cc2c1C(=O)O` [Brequinar], the cell viability rises from 87% to 93.1%.

First: C[C@H](NC(=O)c1sccc1OCc1ccc(Cl)cc1)c1ccccc1
Second: Oc1ccc(Nc2nc(-c3ccc(Cl)cc3)cs2)cc1 [SKI II]
The cell viability of the first is higher: 94.5% for the first, 64.1% for the second.

Compared with `O=C(O)C1=CC(=C(c2ccc(O)c(C(=O)O)c2)c2ccc(O)c(C(=O)O)c2)C=CC1=O` [Aurintricarboxylic acid], `O=C1c2cc([N+](=O)[O-])ccc2-n2c1nc1ccccc1c2=O` [GNF-Pf-3777] is higher in cell viability: 92.9% for the first, > 100% for the second.

Going from `COC(=O)[C@]12CCC(C)(C)C[C@H]1[C@H]1C(=O)C=C3[C@@]4(C)C=C(C#N)C(=O)C(C)(C)[C@@H]4CC[C@@]3(C)[C@]1(C)CC2` [Bardoxolone methyl] to `COc1cc(/C=C/C(=O)N2CCC=CC2=O)cc(OC)c1OC` [Piperlongumine], the cell viability rises from 85.8% to 93.4%.

First: O=C1O/C(=C/Br)CCC1c1cccc2ccccc12 (centres undefined) [Bromoenol Lactone]
Second: O=C(O)Cn1nnc(-c2cc(N3CCC(Oc4cc(F)ccc4Br)CC3)no2)n1 [MK-8245]
The cell viability of the first is lower: 68.2% for the first, 96.4% for the second.

Going from `Nc1nc(Cl)nc2c1ncn2[C@H]1C[C@H](O)[C@@H](CO)O1` [Cladribine] to `CC[C@@]1(O)C(=O)OCc2c1cc1n(c2=O)Cc2cc3c(CN(C)C)c(O)ccc3nc2-1` [Topotecan], the cell viability falls from 95.2% to 83.6%.

First: N#CC(C#N)=NNc1ccc(OC(F)(F)F)cc1 [FCCP]
Second: C=C(C)[C@H]1Cc2c(ccc3c2O[C@@H]2COc4cc(OC)c(OC)cc4[C@@H]2C3=O)O1 [Rotenone]
The cell viability of the first is higher: 90.1% for the first, 75.9% for the second.

`C=C(C=NNC(=N)N)NNC(=N)N` [Mitoguazone] gave a cell viability of 86.1%.

same assay, conditions: 10 nM; 72 h

Compared with `O=C(C1CC1)N1CC[C@@H](C=C2NNC(=O)N2c2ccc(-c3ccc4occc4c3)cc2)C1`, `Cc1c(-c2ccc(-c3ccccc3F)cc2)nc2ccc(F)cc2c1C(=O)O` [Brequinar] is higher in cell viability: 89% for the first, 89.3% for the second.

Compared with `C[C@H](NC(=O)c1sccc1OCc1ccc(Cl)cc1)c1ccccc1`, `Oc1ccc(Nc2nc(-c3ccc(Cl)cc3)cs2)cc1` [SKI II] is higher in cell viability: 95.9% for the first, > 100% for the second.

Compared with `O=C(O)C1=CC(=C(c2ccc(O)c(C(=O)O)c2)c2ccc(O)c(C(=O)O)c2)C=CC1=O` [Aurintricarboxylic acid], `O=C1c2cc([N+](=O)[O-])ccc2-n2c1nc1ccccc1c2=O` [GNF-Pf-3777] is higher in cell viability: 94.4% for the first, 94.8% for the second.

First: COC(=O)[C@]12CCC(C)(C)C[C@H]1[C@H]1C(=O)C=C3[C@@]4(C)C=C(C#N)C(=O)C(C)(C)[C@@H]4CC[C@@]3(C)[C@]1(C)CC2 [Bardoxolone methyl]
Second: COc1cc(/C=C/C(=O)N2CCC=CC2=O)cc(OC)c1OC [Piperlongumine]
The cell viability of the first is lower: 68.1% for the first, 84.5% for the second.

Going from `O=C1O/C(=C/Br)CCC1c1cccc2ccccc12` (centres undefined) [Bromoenol Lactone] to `O=C(O)Cn1nnc(-c2cc(N3CCC(Oc4cc(F)ccc4Br)CC3)no2)n1` [MK-8245], the cell viability falls from 90.4% to 77.4%.

Compared with `Nc1nc(Cl)nc2c1ncn2[C@H]1C[C@H](O)[C@@H](CO)O1` [Cladribine], `CC[C@@]1(O)C(=O)OCc2c1cc1n(c2=O)Cc2cc3c(CN(C)C)c(O)ccc3nc2-1` [Topotecan] is lower in cell viability: 98.3% for the first, 80.9% for the second.

Going from `N#CC(C#N)=NNc1ccc(OC(F)(F)F)cc1` [FCCP] to `C=C(C)[C@H]1Cc2c(ccc3c2O[C@@H]2COc4cc(OC)c(OC)cc4[C@@H]2C3=O)O1` [Rotenone], the cell viability falls from 89.9% to 81.3%.

Compound `C=C(C=NNC(=N)N)NNC(=N)N` [Mitoguazone] has a cell viability of 72.5%.

same assay, conditions: 100 nM; 72 h

Compared with `O=C(C1CC1)N1CC[C@@H](C=C2NNC(=O)N2c2ccc(-c3ccc4occc4c3)cc2)C1`, `Cc1c(-c2ccc(-c3ccccc3F)cc2)nc2ccc(F)cc2c1C(=O)O` [Brequinar] is lower in cell viability: > 100% for the first, 97.5% for the second.

Compared with `C[C@H](NC(=O)c1sccc1OCc1ccc(Cl)cc1)c1ccccc1`, `Oc1ccc(Nc2nc(-c3ccc(Cl)cc3)cs2)cc1` [SKI II] is higher in cell viability: 91% for the first, > 100% for the second.

Compared with `O=C(O)C1=CC(=C(c2ccc(O)c(C(=O)O)c2)c2ccc(O)c(C(=O)O)c2)C=CC1=O` [Aurintricarboxylic acid], `O=C1c2cc([N+](=O)[O-])ccc2-n2c1nc1ccccc1c2=O` [GNF-Pf-3777] is lower in cell viability: 96.2% for the first, 86.5% for the second.

Going from `COC(=O)[C@]12CCC(C)(C)C[C@H]1[C@H]1C(=O)C=C3[C@@]4(C)C=C(C#N)C(=O)C(C)(C)[C@@H]4CC[C@@]3(C)[C@]1(C)CC2` [Bardoxolone methyl] to `COc1cc(/C=C/C(=O)N2CCC=CC2=O)cc(OC)c1OC` [Piperlongumine], the cell viability rises from 61.9% to 70.3%.

Compared with `O=C1O/C(=C/Br)CCC1c1cccc2ccccc12` (centres undefined) [Bromoenol Lactone], `O=C(O)Cn1nnc(-c2cc(N3CCC(Oc4cc(F)ccc4Br)CC3)no2)n1` [MK-8245] is higher in cell viability: 79.3% for the first, 98% for the second.

First: Nc1nc(Cl)nc2c1ncn2[C@H]1C[C@H](O)[C@@H](CO)O1 [Cladribine]
Second: CC[C@@]1(O)C(=O)OCc2c1cc1n(c2=O)Cc2cc3c(CN(C)C)c(O)ccc3nc2-1 [Topotecan]
The cell viability of the first is higher: > 100% for the first, 98.6% for the second.

First: N#CC(C#N)=NNc1ccc(OC(F)(F)F)cc1 [FCCP]
Second: C=C(C)[C@H]1Cc2c(ccc3c2O[C@@H]2COc4cc(OC)c(OC)cc4[C@@H]2C3=O)O1 [Rotenone]
The cell viability of the first is higher: > 100% for the first, 72.8% for the second.

Compound `C=C(C=NNC(=N)N)NNC(=N)N` [Mitoguazone] has a cell viability of 93.5%.

same assay, conditions: 1000 nM; 72 h

Going from `O=C(C1CC1)N1CC[C@@H](C=C2NNC(=O)N2c2ccc(-c3ccc4occc4c3)cc2)C1` to `Cc1c(-c2ccc(-c3ccccc3F)cc2)nc2ccc(F)cc2c1C(=O)O` [Brequinar], the cell viability falls from 96.2% to 92.2%.

Compared with `C[C@H](NC(=O)c1sccc1OCc1ccc(Cl)cc1)c1ccccc1`, `Oc1ccc(Nc2nc(-c3ccc(Cl)cc3)cs2)cc1` [SKI II] is lower in cell viability: > 100% for the first, 88.9% for the second.

First: O=C(O)C1=CC(=C(c2ccc(O)c(C(=O)O)c2)c2ccc(O)c(C(=O)O)c2)C=CC1=O [Aurintricarboxylic acid]
Second: O=C1c2cc([N+](=O)[O-])ccc2-n2c1nc1ccccc1c2=O [GNF-Pf-3777]
The cell viability of the first is higher: > 100% for the first, 77.2% for the second.

Compared with `COC(=O)[C@]12CCC(C)(C)C[C@H]1[C@H]1C(=O)C=C3[C@@]4(C)C=C(C#N)C(=O)C(C)(C)[C@@H]4CC[C@@]3(C)[C@]1(C)CC2` [Bardoxolone methyl], `COc1cc(/C=C/C(=O)N2CCC=CC2=O)cc(OC)c1OC` [Piperlongumine] is higher in cell viability: 61.3% for the first, 75.6% for the second.

Compared with `O=C1O/C(=C/Br)CCC1c1cccc2ccccc12` (centres undefined) [Bromoenol Lactone], `O=C(O)Cn1nnc(-c2cc(N3CCC(Oc4cc(F)ccc4Br)CC3)no2)n1` [MK-8245] is higher in cell viability: 69.3% for the first, 97.5% for the second.

First: Nc1nc(Cl)nc2c1ncn2[C@H]1C[C@H](O)[C@@H](CO)O1 [Cladribine]
Second: C=C(C)[C@H]1Cc2c(ccc3c2O[C@@H]2COc4cc(OC)c(OC)cc4[C@@H]2C3=O)O1 [Rotenone]
The cell viability of the first is higher: 90.3% for the first, 68.4% for the second.

Going from `N#CC(C#N)=NNc1ccc(OC(F)(F)F)cc1` [FCCP] to `C=C(C=NNC(=N)N)NNC(=N)N` [Mitoguazone], the cell viability rises from 59.9% to 94.2%.
